According to ChEMBL document CHEMBL3507680, “University of Dundee, Gates Library screen for HepG2 cell viability”:

Assay: Human HepG2 cell viability assay in 384 well format
Assay type: toxicity, cell-based
Parameters: dose 125 nL, time 70.5 hour; concentration not given beside the values
Settings: HepG2 cells, read-out: Inhibition

Row | SMILES | cytotoxicity at 70.5 h [%]
1 | CC(C)c1nn(C)c(N(C)C)c1CNCc1cscn1 | -5.21
2 | CC(C)n1c(C2CCCN(CC(=O)NC3CC3)C2)nc2ccccc21 (stereo not drawn) | -1.26
3 | COC(=O)C1CN(Cc2ccn(-c3ccc(F)cc3)n2)C[C@@H](C)O1 (stereo partly drawn) | 21.2
4 | Cc1ccc(-c2ccnc(NC(C)c3c(C)n[nH]c3C)n2)c(C)n1 (stereo not drawn) | -8.64
5 | COCCNCc1ccc(OCC(=O)NC(C)(C)C)cc1 | 19.6
6 | c1cnc(N2CCCC(c3n[nH]c4ncccc34)C2)nc1 (stereo not drawn) | -4.04
7 | CC(C)c1ncc2c(n1)CN(Cc1nc(-c3cccnc3)no1)CC2 | 13.2
8 | O=C(NCC(O)c1ccc(Cl)s1)c1ccoc1 (stereo not drawn) | -8.52
9 | Cc1nc(CN2C[C@@H]3CN(C(=O)C4CC4)C[C@@H]3C2=O)cs1 | 27.3
10 | CN(C(=O)c1ccc(C#N)cc1)c1nnc(C2CCOC2)s1 (stereo not drawn) | -6.28
11 | Cc1nc(-c2ccc(C(=O)O)cc2)cc(C2CCCN(C(C)C)C2)n1 (stereo not drawn) | 9.4
12 | O=S(=O)(CCN1CCCC1Cn1cccn1)c1ccccc1 (stereo not drawn) | -13.8
13 | CCCS(=O)(=O)NC(=O)c1ccc(CC)o1 | 2.47
14 | Cc1ccc2nc(C3CCCN3Cc3nnc(C)s3)[nH]c2c1 (stereo not drawn) | 26.6
15 | CCC1(CNCc2ncc[nH]2)CCCC1 | -13.3
16 | Cc1cc(C(=O)N2CCNC(=O)C2)c(C)n1CC(F)(F)F | 26.8
17 | CCn1ncc(CN2CCN(C(=O)Cn3cc(Br)c(C)n3)CC2)c1C | -9.19
18 | O=C(C[C@@H]1COC[C@H]2CN(Cc3cccnc3)C[C@@H]12)NCC1CC1 | -4.39
19 | CC(c1nccs1)N(C)C(=O)c1cc(CN(C)Cc2ccccc2)on1 (stereo not drawn) | 0.573
20 | CN(C)[C@H]1CN(C(=O)c2ccc3sc4c(c3c2)CCNC4=O)C[C@@H]1O | -1.45
21 | COCCC(=O)N1CCC(c2ccc3c(NC(C)C)n[nH]c3n2)C1 (stereo not drawn) | -6.39
22 | CCN(CC)C(=O)NCCc1ccn(-c2ccccc2)n1 | 11
23 | Cc1ccc(-c2ncc(C(=O)NCCNC(=O)C3CC3)s2)c(C)c1 | -6.37

Row | SMILES | cytotoxicity at 70.5 h [%]
24 | Cc1cc(N2CCC(NC(C)Cc3ccsc3)CC2)nc(N)n1 (stereo not drawn) | 32.9
25 | CN(Cc1ncc[nH]1)CC(c1cccs1)N1CCOCC1 (stereo not drawn) | 17.4
26 | Cc1cc(F)ccc1CN1CCCC2(C1)OCCO2 | -3.36
27 | c1cc(-c2cncnc2)cc(-c2ccn(CC3CCNC3)n2)c1 (stereo not drawn) | -15.7
28 | CNc1cc2c(nn1)CCN(C(=O)c1ccoc1)C2 | -6.62
29 | CN(C)C(=O)[C@@H]1C[C@@H]2CCN(C3CCOCC3)C[C@H]2O1 | -4.53
30 | Cc1cc(C)nc(C2CCN(C3CCCCC3)C2)n1 (stereo not drawn) | -5.66
31 | O=C(COc1ccccc1NCc1ccoc1)N1CCOCC1 | -18.1
32 | CC(C)Cc1nc(CN2CCC(NC(=O)c3cccs3)CC2)no1 | -6.12
33 | O=C1CCCc2cc(-c3csc(CCN4CCOC4=O)n3)ccc2N1 | -0.559
34 | C[C@H]1CN(C(=O)c2ccoc2)C[C@@]12CCN(CCN(C)C)C2=O | 14.7
35 | CSCC[C@H](NC(=O)N1CCC(Cc2ccccc2)CC1)C(=O)O | -13.4
36 | Cc1cc(CCC(N)=O)cc(C2CCCN2Cc2cnc(C)nc2)n1 (stereo not drawn) | -7.32
37 | COc1ccc(CC(=O)N2CC[C@@H]3CN(C)S(=O)(=O)[C@@H]3CC2)cc1 | -5.74
38 | CC(C)n1ccnc1C1CCN(C(=O)C2COc3ccccc3O2)CC1 (stereo not drawn) | -9.98
39 | CC(=O)N1CCC(CCc2ccnc(Nc3ccccn3)c2)CC1 | 26.8
40 | COc1ccc(C(=O)Nc2nncs2)cn1 | 27.2
41 | CCc1cc(C)c(C(=O)N2CCCC(c3nnn[nH]3)C2)o1 (stereo not drawn) | -0.273
42 | CN(c1ccncn1)C1CC2(CCN(C(=O)c3cccs3)C2)C1 (stereo not drawn) | -16.4
43 | COc1ccc2nc(O)c(CN(C)Cc3ncc[nH]3)cc2c1 | 1.48
44 | Cc1ccc(CN2CC[C@H]3OCC[C@@H](C(=O)NCC4CC4)[C@@H]3C2)s1 | -6.5
45 | c1cc(-c2c[nH]c([C@@H]3COCCN3C3CCCCC3)n2)ccn1 | 0.143
46 | O=C1O[C@@H]2CN(Cc3cccnc3)C[C@@H]2N1CCCN1CCOCC1 | -1.95

Row | SMILES | cytotoxicity at 70.5 h [%]
47 | Cc1ccc(CN(C)C(=O)CN2CCCCC2Cn2cncn2)o1 (stereo not drawn) | 17.9
48 | COCCN1CCOCC12CCN(C(=O)c1cccnc1)CC2 | -8.13
49 | CCC(CC)n1ncc(C(=O)NS(=O)(=O)c2ccsc2)c1C | 21.2
50 | Cc1nn(C)cc1-c1cc(C(F)(F)F)n(CCCN)n1 | -0.484
51 | CN(C)[C@@H]1COC[C@@H]2CN(Cc3ccc4c(c3)OCO4)C[C@@H]21 | -3.34
52 | COCCNC(=O)c1cc(S(=O)(=O)N2CCCCC2)cs1 | -13.8
53 | O=C1NCCCCC1NS(=O)(=O)N1CCCCC1 (stereo not drawn) | -10.6
54 | Cc1ccc(C(=O)N2CCCCC2CNC(N)=O)cc1F (stereo not drawn) | 0.819
55 | Cc1csc([C@@H]2C[C@@H]3CCN(C(=O)c4ccnnc4)C[C@H]3O2)n1 | -3.66
56 | COc1ccc(C[C@H]2CN(C(=O)C3CC3)CC[C@H]2OC)cc1 | 21.5
57 | CNC(=O)c1ccc(C(=O)N2CCCCC2Cn2cc(C)cn2)cn1 (stereo not drawn) | -5.34
58 | CC1CCCCN1C(=O)Cn1cc(I)cn1 (stereo not drawn) | -1.82
59 | CN(Cc1ccc(Cl)s1)C(=O)Nc1ccc(N(C)C)nc1 | -11.5
60 | CC(C)(O)CN1CCN(C(=O)COC2CCCCC2)CC1 | 1.44
61 | Cc1noc(C)c1CN1C[C@H](OCC(=O)N(C)C)[C@H]2OCCC[C@H]21 | -6.96
62 | Cc1cn2nc(N3CCN(Cc4cc(C)on4)CC3)sc2n1 | -2.77
63 | CC(C)c1n[nH]c(C2CN(C(=O)c3cnccn3)CCO2)n1 (stereo not drawn) | 18.8
64 | Cc1nc(C)n(C2CCCN(C(=O)c3cc(C4CC4)on3)C2)n1 (stereo not drawn) | 1.36
65 | COc1ccc(OCc2nc(C(=O)N3CC(O)C3)co2)cc1 | -8.01
66 | CN(C)C(=O)N1CC[C@@H](O)[C@@H]1Cc1ccccc1 | -7.54
67 | CNc1ccc(C(=O)N(C)Cc2ccc3ccccc3n2)cn1 | -8.44
68 | CNc1cc(N2CCCC2CNCc2cccc(C#N)c2)ncn1 (stereo not drawn) | 1.28
69 | CCc1cccc(OC2CN(C(=O)[C@@H](N)[C@@H](C)O)C2)c1 | -8.46

Row | SMILES | cytotoxicity at 70.5 h [%]
70 | CCOc1ccc(Cl)c(C(=O)NC)n1 | 0.647
71 | NS(=O)(=O)c1cnn(CCC(=O)N(C2CCCCC2)C2CC2)c1 | -3.97
72 | Cc1ccc(C2(O)CCN(C(=O)Cn3cc(C)c(=O)[nH]c3=O)CC2)nc1 | -7.28
73 | CC(=O)N1CCC12CCN(Cc1ccco1)CC2 | 19.9
74 | Cc1ccsc1CNC(=O)c1ccc(N2CCOC2=O)cc1 | -7.71
75 | Cc1nc(O)cc(CN2CC=C(c3cnn(-c4ccccc4)c3)CC2)n1 | 14.1
76 | Cc1ccc(CS(=O)(=O)N2CC[C@H]3[C@H]2CCN3C)cc1 | -5.67
77 | OCCOc1ccc(NCc2cccc3[nH]ccc23)cn1 | -3.37
78 | COCCC1(CO)CCCN(C(=O)c2cc(Cl)ccc2F)C1 (stereo not drawn) | -11
79 | Cc1cnc(N2CCC3(CC2)CN(Cc2cccs2)CCO3)nc1 | -8.99
80 | O=C1CCCN1CC1CCCCN1C(=O)Nc1cccnc1 (stereo not drawn) | -1.1
81 | c1csc(-c2cc(CN3CCN(c4cnccn4)CC3)no2)c1 | -14.8
82 | CCOc1ccc(Cl)cc1CCNC(=O)N1CCCC(CO)C1 (stereo not drawn) | -7.21
83 | Cn1nc(C(C)(C)C)cc1NC(=O)Cn1ccccc1=O | -12
84 | CC(C)=CCN1C[C@@H]2CN(C(=O)c3cnccc3C)C[C@]2(C(=O)O)C1 | -7.13
85 | O=C(c1cnccn1)N1CCC2(CCN(Cc3ccsc3)CC2)CC1 | -2.48
86 | CC(NC(=O)N1CCCN(C)CC1)c1ccc(S(N)(=O)=O)cc1 (stereo not drawn) | -4.13
87 | CSc1nc(O)c(Cc2ccccc2)c(=O)n1-c1ccccc1 | -6.85
88 | CNC(=O)c1cn(C)c(-c2nc3cc(NC(C)=O)ccc3n2C)c1OC | -17.5
89 | OCCNc1cc(N2CCC(n3cc(C4CCCC4)nn3)CC2)ncn1 | -10.7
90 | COCc1cc(O)nc(C2CCCN(Cc3cccc(OC)c3)C2)n1 (stereo not drawn) | -1.68
91 | COc1ccc(F)c(-c2nccn2CCN2CCCC2)c1 | 33.7
92 | CNC(=O)c1cccc(NC(=O)CN2CCCN(S(C)(=O)=O)CC2)c1 | -5.6

Row | SMILES | cytotoxicity at 70.5 h [%]
93 | COc1ccc(S(=O)(=O)NC(=O)C(C)OC)c(OC)c1 (stereo not drawn) | -2.74
94 | CCc1nnc(CNC(=O)CCC2CCCN(C)C2)s1 (stereo not drawn) | -0.522
95 | FC(F)(F)CCc1ncnn1-c1ccc2c(c1)OCO2 | -7.77
96 | CC(NCC(=O)NCC(=O)Nc1ccc(F)cc1)c1cccs1 (stereo not drawn) | -17.8
97 | CC[C@H]1N(CC2CCOCC2)CCC[C@]12CCC(=O)N2 | -3.56
98 | CS(=O)(=O)N1C[C@@H]2CC[C@H](C1)N(Cc1cscn1)C2=O | -11.4
99 | CCOCCN1CCN(Cc2nc(C)no2)CC1CC (stereo not drawn) | -2.4
100 | CN(C(=O)c1ccccn1)c1nc2c(s1)CCc1c-2cnn1C | 8.04
101 | O=C(NCc1cccnc1-n1cncn1)c1cncc(Br)c1 | 0.0598
102 | Cc1nccn1CCCN1CCC2(CCC(=O)N(CC3CC3)C2)CC1 | -7.09
103 | CNC(=O)Nc1cc(-c2ccc(Br)cc2)nn1CCO | -0.486
104 | Cc1ccc(C2CSCCN2C(=O)c2cccs2)o1 (stereo not drawn) | 19.9
105 | CCN1Cc2cc(OC)ccc2N(CC(C)(C)O)CCC1=O | -13
106 | Cn1cc(CN2CCCCC2c2ccc(-c3cccc(F)c3)nc2)cn1 (stereo not drawn) | -1.71
107 | Cc1cc(C(=O)Nc2ccc(N3CCCC3)cn2)ccc1-n1cncn1 | -1.17
108 | c1cnc(N2CCC3(CCCN(CC4CC4)C3)CC2)nc1 | -6.6
109 | Cc1n[nH]c(C2CN(C(=O)c3ccoc3C)CCO2)n1 (stereo not drawn) | 1.53
110 | Cc1nn(C)c(N2CCOCC2)c1CNC(C)c1ccco1 (stereo not drawn) | 10.7
111 | O=C1CC(c2ccc(O)cc2)c2c(n3ccsc3nc2=O)N1 (stereo not drawn) | -29.2
112 | CN(Cc1cnccn1)C(=O)c1ccc(CSc2nnc[nH]2)o1 | -20.7
113 | O=c1[nH]c(COc2ccccc2Cl)nc2c1CCNC2 | -4.85
